Assay results as given in patent US20030180248A1, “Cosmetic composition containing the extract of mountain ginseng adventitious roots” (priority 2001, published 2003).

Tested on: transformed mouse fibroblast L929 cells
Test: Cytotoxicity, Neutral Red uptake
Format: cell-based
Conditions: 48 hours
Description: Extracts from tissue-cultured mountain ginseng adventitious roots, prepared in Examples 1 to 3, were examined for cytotoxicity, in comparison with a red ginseng extract and arbutin, which are conventionally used as skin-whitening materials.
After being recovered by trypsinization, the transformed mouse fibroblast L929 cells were suspended in DMEM supplemented with 2% BCS (bovine calf serum), and the suspension was aliquoted at a concentration of 2,500-3,000 cells/well into each well of 96 well tissue culture plates, followed by incubation at 37° C. for 48 hours in a 5% CO2 atmosphere. After substitution of the medium with a fresh, serum-free one, the cells were treated with the test materials shown in Table 2, below, and cultured for 48 hours. To each well, Neutral Red (50 μg/ml) was added, and reacted with cells for 3 hours. After completion of the accumulation of Neutral Red in live cells, the dye was fixed with the use of 1.0% formalin/1.0% CaCl2. Neutral Red was extracted from cells using 1.0% acetic acid/50% ethanol solution. The extracted Neutral Red was analyzed by ELISA to measure the cytotoxicity of the test materials according to concentrations.

## OC[C@H]1O[C@@H](Oc2ccc(O)cc2)[C@H](O)[C@@H](O)[C@@H]1O [Arbutin]
Neutral Red
  NR50: 0.29 w/w %
Concentration 0.001 w/w %
  Cytotoxicity (Neutral Red reading): 98
Concentration 0.01 w/w %
  Cytotoxicity (Neutral Red reading): 82
Concentration 0.1 w/w %
  Cytotoxicity (Neutral Red reading): 63
Concentration 1 w/w %
  Cytotoxicity (Neutral Red reading): 2
